Results on five molecules are retold here after patent US9216984B2, “3-[4-(7H-pyrrolo[2,3-D]pyrimidin-4-yl)-1H-pyrazol-1-yl]octane—or heptane-nitrile as JAK inhibitors” (Incyte Corporation, priority 2009, dated 2015).

For experiment [1], the target named is human JAK2 (a.a. 828-1132) (Homo sapiens (Human), UniProt O60674). The experiment is described as follows: In vitro JAK kinase assay (HTRF, phosphorylation of biotinylated peptide). To be noted: for IC50: at Km ATP (30 μM ATP for Jak2). It counts as biochemical. How it is done: (§1) The compounds of the invention were tested for inhibitory activity of JAK targets according to the following in vitro assay described in Park et al., Analytical Biochemistry 1999, 269, 94-104. The catalytic domains of human JAK1 (a.a. 837-1142), JAK2 (a.a. 828-1132) and JAK3 (a.a. 781-1124) with an N-terminal His tag were expressed using baculovirus in insect cells and purified. The catalytic activity of JAK1, JAK2 or JAK3 was assayed by measuring the phosphorylation of a biotinylated peptide. The phosphorylated peptide was detected by homogenous time resolved fluorescence (HTRF). […] The ATP concentration in the reactions was 90 μM for Jak1, 30 μM for Jak2 and 3 μM for Jak3. Reactions were carried out at room temperature for 1 hr and then stopped with 20 μL 45 mM EDTA, 300 nM SA-APC, 6 nM Eu-Py20 in assay buffer (Perkin Elmer, Boston, Mass.). Binding to the Europium labeled antibody took place for 40 minutes and HTRF signal was measured on a Fusion plate reader (Perkin Elmer, Boston, Mass.).

Experiment [2] addresses human JAK1 (a.a. 837-1142) (Homo sapiens, UniProt P23458). The description is as above. It is filed as biochemical. As to conditions: at Km ATP (90 μM ATP for Jak1). The method, then:
as §1

Where a name gives a salt, the structure may show the parent alone.

Sequence of human JAK2 (a.a. 828-1132) (O60674 828-1132): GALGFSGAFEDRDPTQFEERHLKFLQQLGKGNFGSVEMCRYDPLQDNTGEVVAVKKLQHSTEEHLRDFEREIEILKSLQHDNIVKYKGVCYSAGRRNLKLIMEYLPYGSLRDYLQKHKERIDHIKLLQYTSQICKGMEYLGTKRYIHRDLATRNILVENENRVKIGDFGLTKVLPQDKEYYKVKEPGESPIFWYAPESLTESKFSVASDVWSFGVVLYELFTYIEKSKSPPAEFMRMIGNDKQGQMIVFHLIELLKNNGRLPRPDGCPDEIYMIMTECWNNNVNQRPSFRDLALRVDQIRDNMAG

In the case of `CCCCCC(CC#N)n1cc(-c2ncnc3[nH]ccc23)cn1` (single isomer, unassigned) [Example 1, first peak (free base), 3-[4-(7H-pyrrolo[2,3-d]pyrimidin-4-yl)-1H-pyrazol-1-yl]octanenitrile], the “JAK2 activity compared with the other form/enantiomer (in words)” value in experiment [1] is given as “not as potent as the other enantiomer”.

Take `CCCCCC(CC#N)n1cc(-c2ncnc3[nH]ccc23)cn1.O=P(O)(O)O` (single isomer, unassigned) [Example 1, second peak (phosphate salt), 3-[4-(7H-pyrrolo[2,3-d]pyrimidin-4-yl)-1H-pyrazol-1-yl]octanenitrile phosphoric acid salt]: the “JAK2 activity compared with the other form/enantiomer (in words)” value in experiment [1] is “similarly active”.

`CCCCC(CC#N)n1cc(-c2ncnc3[nH]ccc23)cn1` (single isomer, unassigned) [Example 2, first peak (free base), 3-[4-(7H-pyrrolo[2,3-d]pyrimidin-4-yl)-1H-pyrazol-1-yl]heptanenitrile]: the IC50 stood at 1.4 nM in experiment [1] and 1.8 nM in experiment [2].

Take `CCCCC(CC#N)n1cc(-c2ncnc3[nH]ccc23)cn1` (single isomer, unassigned) [Example 2, second peak (free base), 3-[4-(7H-pyrrolo[2,3-d]pyrimidin-4-yl)-1H-pyrazol-1-yl]heptanenitrile]: the IC50 in experiment [1] worked out at 0.3 nM; in experiment [2] it was 0.57 nM.

Consider `CCCCC(CC#N)n1cc(-c2ncnc3[nH]ccc23)cn1` (single isomer, unassigned) [Example 2, second peak (phosphate salt), 3-[4-(7H-pyrrolo[2,3-d]pyrimidin-4-yl)-1H-pyrazol-1-yl]heptanenitrile phosphoric acid salt], for which the IC50 in experiment [1] came to 0.65 nM; in experiment [2] it was 2 nM.

The term IC50 denotes the concentration needed to halve the response being measured. Low values mean inhibition by little substance, high ones a need for much substance.
